In PubChem BioAssay (NCI):
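Protocol summary: plate cells (96-well), add compound at 5 concentrations, incubate 48 h, interpolate endpoints linearly. TGI is the concentration that stops growth completely.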

Tests used:
Assay in all cases: NCI-60 cell line screen, 48 h
[1] = system: SW-620 colon
[2] = system: BT-549 breast
[3] = system: SNB-19 CNS
[4] = system: IGROV1 ovarian
[5] = system: SNB-75 CNS
[6] = system: KM12 colon
[7] = system: NCI-H23 lung
[8] = system: MCF7 breast
[9] = system: TK-10 renal
[10] = system: SK-OV-3 ovarian
[11] = system: UACC-62 melanoma
[12] = system: UACC-257 melanoma
[13] = system: CAKI-1 renal
[14] = system: MALME-3M melanoma
[15] = system: UO-31 renal
[16] = system: SK-MEL-28 melanoma
[17] = system: U251 CNS
[18] = system: NCI-H226 lung
[19] = system: 786-0 renal
[20] = system: MDA-MB-435

| Structure (SMILES) | TGI [1] [µM] | TGI [2] [µM] | TGI [3] [µM] | TGI [4] [µM] | TGI [5] [µM] | TGI [6] [µM] | TGI [7] [µM] | TGI [8] [µM] | TGI [9] [µM] | TGI [10] [µM] | TGI [11] [µM] | TGI [12] [µM] | TGI [13] [µM] | TGI [14] [µM] | TGI [15] [µM] | TGI [16] [µM] | TGI [17] [µM] | TGI [18] [µM] | TGI [19] [µM] | TGI [20] [µM] |
| --- | --- | --- | --- | --- | --- | --- | --- | --- | --- | --- | --- | --- | --- | --- | --- | --- | --- | --- | --- | --- |
| N#Cc1ccc(OC(=O)c2ccc(N=C(N)N)cc2)cc1 | > 100 | > 100 | > 100 | > 100 | > 100 | > 100 | > 100 | > 100 | > 100 | > 100 | > 100 | > 100 | > 100 | > 100 | > 100 | > 100 | > 100 | > 100 | > 100 | > 100 |
| COc1cc(CCNC2=CC(=O)c3cccnc3C2=O)ccc1O | 2.94 | 2.75 | 4.04 | 4.3 | 2.06 | 13.2 | 4.65 | 1.3 | 30.5 | 11.1 | 2.7 | 2.18 | 5.04 | 2.32 | 2.83 | 2.56 | 7.05 | 3.53 | 3.67 | 0.317 |
| C[C@]12CC[C@H](O)CC1=CC[C@@H]1C2CC[C@]2(C)c3nn(-c4ccc(F)cc4)nc3CC12 (stereo partly drawn) | > 100 | > 100 | > 100 | > 100 | 74.4 | > 100 | > 100 | > 100 | > 100 | > 100 | > 100 | > 100 | > 100 | > 100 | > 100 | > 100 | > 100 | > 100 | > 100 | > 100 |
| Cc1c(C#N)c2nnn(-c3ccc([N+](=O)[O-])cc3)c(=O)n2c1-c1ccccc1 | 51 | 31.8 | 36.7 | 33.6 | 39.7 | 20.5 | 18.5 | 19.6 | > 100 | 79.4 | 19.4 | 47.6 | 52.2 | 30.7 | 25.5 | 79.7 | 14.5 | 26.9 | 26.6 | 42.9 |
| c1ccc2c(c1)CCN(C1=NCCO1)C2 | > 10 | > 10 | > 10 | > 10 | > 10 | > 10 | > 10 | > 10 | > 10 | > 10 | > 10 | > 10 | > 10 | > 10 | > 10 | > 10 | > 10 | > 10 | > 10 | > 10 |
| COC(=O)C1=C(O)C(C(=O)OC)[C@]2(O)[C@H](C(=O)OC)[C@H]1C[C@@H](c1cccc(OC)c1)[C@H]2C(=O)OC (stereo partly drawn) | > 100 | > 100 | 81.7 | > 100 | > 100 | 69.8 | > 100 | > 100 | > 100 | 66.6 | 35.1 | > 100 | 73.3 | > 100 | 34.7 | > 100 | 68.7 | > 100 | 56.1 | 55.2 |
| O=S(=O)(O)c1ccc2c(N=Nc3ccccc3)c(O)c(S(=O)(=O)O)cc2c1 | > 100 | > 100 | > 100 | > 100 | > 100 | > 100 | > 100 | > 100 | > 100 | > 100 | > 100 | > 100 | > 100 | > 100 | > 100 | > 100 | > 100 | > 100 | > 100 | > 100 |
| O=C1c2cc([N+](=O)[O-])cnc2S(=O)(=O)N1c1ccc(Br)cc1 | > 100 | > 100 | > 100 | > 100 | > 100 | > 100 | > 100 | > 100 | > 100 | > 100 | > 100 | > 100 | > 100 | > 100 | > 100 | > 100 | > 100 | > 100 | > 100 | > 100 |
| [N-]=[N+]=NC1=NNC2(C(=O)N1)c1ccccc1-c1ccccc12 | > 100 | > 100 | > 100 | > 100 | > 100 |  | > 100 | > 100 | > 100 | > 100 | > 100 | > 100 | > 100 | 33.3 | > 100 | > 100 | > 100 | > 100 | > 100 | 33.1 |
| CC(=O)OC(CC(C)C)P1(=O)N(CC(C)(C)C)[C@@H]2CCCC[C@H]2N1CC(C)(C)C (stereo partly drawn) | 29 | 29.2 | 21.9 | 24.2 | 20.6 | 24.1 | 23.1 | 17.4 | 24.7 | 30.7 | 23.3 | 21.4 | 26 | 22.8 | 21.2 | 28.6 | 20.1 | 23.2 | 23.9 | 25.3 |
| CCN(CC)c1ccc2c(c1)Oc1ccc(N(C(C)=O)c3ccccc3)cc1C21OC(=O)c2ccccc21 (stereo not drawn) | > 100 | > 100 | > 100 | > 100 | > 100 | > 100 | > 100 | > 100 | > 100 | > 100 | > 100 | > 100 | > 100 | > 100 | > 100 | > 100 | > 100 | > 100 | > 100 | > 100 |
| CC(=O)[C@H]1CC[C@H]2[C@@H]3CCC4=CC(=O)CC[C@]4(C)[C@H]3CC[C@]12C | > 100 | 32.1 | > 100 | 71.4 | 65.6 | 31.5 | 35.7 | 50.4 | 52.2 | 62.9 | 30.1 | 27.2 | > 100 | 35.8 | 26.4 | 37.7 | 34.1 | 45 | 54.2 | 39.3 |
| CC(/C=N/N(C)C1=NCCCCN1)=N/N(C)C1=NCCCCN1 | > 100 | > 100 | > 100 | > 100 | > 100 | > 100 | > 100 | > 100 | > 100 | > 100 | > 100 | > 100 | > 100 | > 100 | > 100 | > 100 | > 100 | > 100 | > 100 | > 100 |
| O=C1OC(C2Cc3ccccc3C2=O)c2ccccc21 (stereo not drawn) | > 100 | > 100 | > 100 | > 100 | > 100 | > 100 | > 100 | > 100 | > 100 | > 100 | > 100 | > 100 | > 100 | > 100 | > 100 | > 100 | > 100 | > 100 | > 100 | > 100 |
| [N-]=[N+]=C(C(=O)OCC#CCOC(=O)C(=[N+]=[N-])S(=O)(=O)c1ccccc1)S(=O)(=O)c1ccccc1 | > 10 | > 10 | > 10 | > 10 | > 10 | > 10 | > 10 | > 10 | > 10 | > 10 | > 10 | > 10 | > 10 | > 10 | 0.519 | > 10 | > 10 | > 10 | > 10 | > 10 |
| O=C(CCCC1Cc2ccccc2C1=O)c1ccccc1 (stereo not drawn) | > 100 | > 100 | > 100 | > 100 | > 100 | > 100 | > 100 | 56.3 | > 100 | > 100 | > 100 | > 100 | > 100 | > 100 | > 100 | > 100 | > 100 | > 100 | > 100 | > 100 |
| COC(=O)c1ccc(CCC2=CC(=O)C(Br)=CC2=O)cc1 | 27.1 | 23.9 | 29.2 | 28.7 | 26.9 | 32.3 | 28.4 | 34.9 | 31.1 | 38 | 31.7 | 29 | 26.4 | 30.6 | 29.2 | 31.1 | 32.5 | 30.5 | 35.2 | 31.2 |
| CCSCC(=O)N1CCc2c([nH]c3ccccc23)C1=O | > 100 | > 100 | > 100 | > 100 | > 100 | > 100 | > 100 | > 100 | > 100 | > 100 | > 100 | > 100 | > 100 | > 100 | > 100 | > 100 | > 100 | > 100 | > 100 | > 100 |
| Cc1ccc(S(=O)(=O)N(CC(O)c2ccccc2)c2ccccc2F)cc1 (stereo not drawn) | 39.9 | 32 | 37.5 | 41.2 | 30.3 | 42.6 | 36.9 | 28 | 45.8 | 38.4 | 28 | 16.1 | 33.7 | 34.1 | 29.8 | 33.1 | 36.7 | 48.7 | 34.7 | 32.9 |
| COc1ccc2c(c1)c(=O)c1c(NCCCN(C)CCCNc3ccc4c(=O)n(CCN(C)C)c(=O)n5c6ccc(OC)cc6c(=O)c3c45)ccc3c(=O)n(CCN(C)C)c(=O)n2c31 | 0.752 | 2.12 | 2.17 | 0.584 | 0.216 | 1.11 | 0.704 | 1.12 | 6.6 | 4.98 | 0.956 | 2.11 | 0.784 | 2.42 | 1.01 | 2.32 | 1.26 | 0.409 | 1.48 | 0.756 |
| COc1ccc(OC)c(C(=O)/C=C/c2cc(O)c(O)cc2F)c1 | > 66.5 | 19.6 | > 35 | 34.2 | 28.2 | 13.8 | 10.4 | 14.3 | 21.6 | > 67.5 | 11.7 | 18.3 | 27.6 | 27.4 | 28.7 | 35.8 | 12.3 | 15.4 | 17.6 | 0.99 |
| CN1[C@@H]2CCCC[C@H]2N(C)P1(=O)C(O)/C=C/c1ccccc1 (stereo partly drawn) | > 100 | > 100 | > 100 | > 100 | > 100 | > 100 | > 100 | > 100 | > 100 | > 100 | > 100 | > 100 | > 100 | > 100 | > 100 | > 100 | > 100 | > 100 | > 100 | > 100 |
| CN(C)c1ccc(/C=N/n2c(-c3ccccc3)nc3ccccc3c2=O)cc1 | > 100 | > 100 | > 100 | > 100 | > 100 | > 100 | > 100 | > 100 | > 100 | > 100 | > 100 | > 100 | > 100 | > 100 |  | > 100 | > 100 | > 100 | > 100 | > 100 |
